The source of these data is patent publication US12692396B2, “Fluorescent labeling agent and fluorescent dye” (artience Co., Ltd., priority 2020, dated 2026).

The test system of series [1] is Human epithelium cancer cells A431. Briefly: Evaluation of visibility of cell (fluorescent microscope). The series is classed as cell-based. Also on record: key: P (Pass): Clear; F (Failure): Unclear. As to the method:
<Evaluation of Visibility of Cell>
Human epithelium cancer cells A431 were seeded in a 96-well plate (1×10^4 cells/well). The A431 were cultured for 24 hours using an RPMI 1640 medium to which 10% fetal bovine serum (FBS) and 1% penicillin-streptomycin had been added in an incubator (37° C., 5% CO2-containing Air, humidified environment).
After cultivation, the medium was removed, and the fluorescent labeling agents prepared in Examples 127 to 189 and Comparative Examples 25 to 37 were added thereto and left to stand in the incubator for one hour. Next, these were washed in the RPMI 1640 medium. The dark field images and fluorescent images of the cells were observed using a fluorescent microscope (manufactured by Keyence Corporation, BZ-X800) equipped with an excitation filter for an appropriate wavelength and a fluorescent filter and evaluated based on the following standards.
• P (Pass): Clear • F (Failure): Unclear
The evaluation results of the visibility of the cells labeled with the fluorescent labeling agents 1, 15, 19, 24, 25, 68, and 75 are sequentially shown in FIGS. 2 to 8 (magnification: 10 times, optical uptake time: 1 second).
The evaluation results of the visibility of the cells labeled with the fluorescent labeling agents 42 and 53 are sequentially shown in FIGS. 9 to 10 (magnification: 40 times, optical uptake time: 1 second).
From what has been described above, it has been clarified that the fluorescent labeling agent according to the embodiment of the present invention has excellent characteristics as a fluorescent labeling agent.

In a further series the test system is phospholipids. As to the kind of experiment: Evaluation of property of fluorescent dye being accumulated in phospholipids (labeling agent intensity / dye solution intensity). The series is classed as cell-based, Human. The following applies: A431 cells, one hour; relative value, comparative compound 12 regarded as one; fluorescent wavelength range as in Table 22 (780-800 nm, 630-650 nm in last line). As to the method: <Evaluation of Property of Fluorescent Dye being Accumulated in Phospholipids>
The property of each dye being accumulated in phospholipids was calculated from the fluorescence intensity integral value obtained from the fluorescent spectrum of the dye solution and the fluorescence intensity obtained from the fluorescence intensity of the fluorescent labeling agent using an expression (1). The relative value of the property of each fluorescent labeling agent being accumulated in phospholipids when the property of the comparative compound 12 being accumulated in phospholipids was regarded as one was calculated and evaluated based on the following standards. In a case where the relative value is evaluated as 3 or more, it can be said that each fluorescent dye has a favorable property of being accumulated in phospholipids.
• 4: The property of being accumulated in phospholipids is 4 or more. • 3: The property of being accumulated in phospholipids is 2 or more and less than 4. • 2: The property of being accumulated in phospholipids is 1 or more and less than 2. • 1: The property of being accumulated in phospholipids is less than 1. Property of being accumulated in phospholipids=fluorescence intensity of fluorescent labeling agent/fluorescence intensity of dye solution (1)

The subject of series [2] is Human epithelium cancer cells A431. Briefly: Evaluation of cell toxicity of fluorescent labeling agent (cell counting kit-8, absorbance at 450 nm). The series is classed as cell-based. Here is the method:
<Evaluation of Cell Toxicity of Fluorescent Labeling Agent>
Human epithelium cancer cells A431 were seeded in a 96-well plate (1×10^4 cells/well). Next, the A431 were cultured for 24 hours using an RPMI 1640 medium to which 10% fetal bovine serum (FBS) and 1% penicillin-streptomycin had been added in an incubator (37° C., 5% CO2-containing Air, humidified environment). As the RPMI 1640 medium, an RPMI-164-Medium manufactured by Sigma-Aldrich Inc. was used.
After cultivation, the medium was removed, the fluorescent labeling agents prepared in Examples 83 to 123 and Comparative Examples 25 to 37 and an RPMI 1640 medium containing 1% dimethyl sulfoxide (DMSO medium solution) were added thereto. These were left to stand in the incubator for one hour and then washed in the RPMI 1640 medium. 10 μL of a cell counting kit-8 (manufactured by Dojindo Laboratories.) was added to each well and left to stand in the incubator (37° C., 5% CO2-containing Air, humidified environment) for one hour. Next, the absorbance at 450 nm was measured using a plate reader (SPARK, manufactured by Tecan Trading AG).
The relative value of the absorbance of each fluorescent labeling agent when the absorbance of the well to which the DMSO medium solution had been added was regarded as one was calculated and evaluated based on the following standards. […] At the time of calculating the relative value of the absorbance of the fluorescent labeling agent, a value obtained by subtracting the absorbance before the addition of the cell counting kit-8 (manufactured by Dojindo Laboratories.) from the measured absorbance was used.
• P (Pass): 0.8 or more • F (Failure): Less than 0.8 <Evaluation of Fluorescence Intensity of Fluorescent Labeling Agent>
(In general: Formazan colour is commonly taken as a measure of viable cells.)

The mark [3] stands for this setting: A431 cells, labeling agent left one hour.
Where [4] appears, read: labeling agent left one hour, absorbance relative to DMSO medium solution regarded as one.
[5] abbreviates: A431 cells labeled for one hour, Clear/Unclear.
Where [6] appears, read: cell counting kit-8, absorbance at 450 nm, pass/fail grade.

In the case of `C[Si](C)(CCCN)[O][Al]1[n]2c3c4cc(-c5ccccc5)ccc4c2N=C2N=C(N=c4c5cc(-c6ccccc6)ccc5c([n]41)=NC1=NC(=N3)c3ccc(-c4ccccc4)cc31)c1ccc(-c3ccccc3)cc12` [Fluorescent dye 2], the Cell visibility result in series [1] (setting [3]) is recorded as “P”. The “Property of being accumulated in phospholipids” value (“Property of being accumulated” below) with phospholipids was 4 (4: The property of being accumulated in phospholipids is 4 or more.). For the same compound, the Cell toxicity entry in series [2] (setting [4]) is “P (P (Pass): 0.8 or more)”.

In the case of `CCOc1cccc2c1C1=NC2=Nc2c3c(OCC)cccc3c3[n]2[Al]([O]C(=O)CCN(C)C)[n]2c(c4cccc(OCC)c4c2=NC2=NC(=N3)c3c(OCC)cccc32)=N1` [Fluorescent dye 14], the Cell visibility result in series [1] (setting [3]) is “P”. For the same compound, the “Property of being accumulated” value in the series on phospholipids was 4 (4: The property of being accumulated in phospholipids is 4 or more.). Besides, in series [2] (setting [4]), the Cell toxicity result was “P (P (Pass): 0.8 or more)”.

In the case of `CCOc1cccc2c1C1=NC2=Nc2c3c(OCC)cccc3c3n2[Si](O)(OP(=O)(CCC(=O)O)c2ccccc2)n2c(c4cccc(OCC)c4c2=NC2=NC(=N3)c3c(OCC)cccc32)=N1` (stereo not shown) [Fluorescent dye 16], in series [1] (setting [3]), the Cell visibility result was “P”. Besides, the “Property of being accumulated” value in the series on phospholipids is reported as 4 (4: The property of being accumulated in phospholipids is 4 or more.). Also, in series [2] (setting [4]), the Cell toxicity entry was “P (P (Pass): 0.8 or more)”.

In the case of `CCOc1cccc2c1C1=NC2=Nc2c3c(OCC)cccc3c3[n]2[Al]([O]P(=O)(O)CCC(=O)O)[n]2c(c4cccc(OCC)c4c2=NC2=NC(=N3)c3c(OCC)cccc32)=N1` [Fluorescent dye 17], in series [1] (setting [3]), the Cell visibility entry is reported as “P”. Also, the “Property of being accumulated” value in the series on phospholipids was 4 (4: The property of being accumulated in phospholipids is 4 or more.). In series [2] (setting [4]), the Cell toxicity entry is listed as “P (P (Pass): 0.8 or more)”.

Take `CCOc1cccc2c1C1=NC2=Nc2c3c(OCC)cccc3c3[n]2[Al]([O]P(=O)(CCC(=O)O)Oc2ccccc2)[n]2c(c4cccc(OCC)c4c2=NC2=NC(=N3)c3c(OCC)cccc32)=N1` (stereo not shown) [Fluorescent dye 18]: the Cell visibility entry in series [1] (setting [3]) is recorded as “P”. Moreover, the “Property of being accumulated” value in the series with phospholipids is on record as 4 (4: The property of being accumulated in phospholipids is 4 or more.). The Cell toxicity result in series [2] (setting [4]) is “P (P (Pass): 0.8 or more)”.

As for `CC[N+](CC)(CC)CCC[Si](C)(C)[O][Al]1[n]2c3c4cc(-c5ccccc5)ccc4c2N=C2N=C(N=c4c5cc(-c6ccccc6)ccc5c([n]41)=NC1=NC(=N3)c3ccc(-c4ccccc4)cc31)c1ccc(-c3ccccc3)cc12.[I-]` [Fluorescent dye 20], in series [1] (setting [3]), the Cell visibility entry is reported as “P”. The “Property of being accumulated” value with phospholipids is 4 (4: The property of being accumulated in phospholipids is 4 or more.). Further, in series [2] (setting [4]), the Cell toxicity entry is listed as “P (P (Pass): 0.8 or more)”.

As for `C[Si](C)(CCC[N+](c1ccccc1)(c1ccccc1)c1ccccc1)[O][Al]1[n]2c3c4cc(C5CCCCC5)c(C5CCCCC5)cc4c2N=C2N=C(N=c4c5cc(C6CCCCC6)c(C6CCCCC6)cc5c([n]41)=NC1=NC(=N3)c3cc(C4CCCCC4)c(C4CCCCC4)cc31)c1cc(C3CCCCC3)c(C3CCCCC3)cc12.[I-]` [Fluorescent dye 21], the Cell visibility result in series [1] (setting [3]) was “P”. Moreover, the “Property of being accumulated” value in the series with phospholipids is reported as 4 (4: The property of being accumulated in phospholipids is 4 or more.). Besides, in series [2] (setting [4]), the Cell toxicity entry is “P (P (Pass): 0.8 or more)”.

`O=C(O)C(F)(F)C(F)(F)C(=O)NCCc1ccc(S(=O)(=O)[O][Al]2[n]3c4c5cc(C(F)(F)F)ccc5c3N=C3N=C(N=c5c6cc(C(F)(F)F)ccc6c([n]52)=NC2=NC(=N4)c4ccc(C(F)(F)F)cc42)c2ccc(C(F)(F)F)cc23)cc1` [Fluorescent dye 27]: the Cell visibility entry in series [1] (setting [3]) is recorded as “P”. Moreover, in the series on phospholipids, the “Property of being accumulated” value is 4 (4: The property of being accumulated in phospholipids is 4 or more.). In series [2] (setting [4]), the Cell toxicity entry is on record as “P (P (Pass): 0.8 or more)”.

On to `CCOc1cccc2c1C1=Nc3c4cccc(OCC)c4c4[n]3[Mg][n]3c(c5cccc(OCC)c5c3=NC2=N1)=NC1=NC(=N4)c2ccc(OS(=O)(=O)c3ccc(CCCN)cc3)cc21` [Fluorescent dye 36], for which, in series [1] (setting [5]), the Cell visibility result is reported as “P”. Further, in series [2] (setting [6]), the Cell toxicity result is recorded as “P (P (Pass): 0.8 or more)”.

As to `CCOc1cccc2c1C1=Nc3c4cccc(OCC)c4c4[n]3[Zn][n]3c(c5cccc(OCC)c5c3=NC2=N1)=NC1=NC(=N4)c2ccc(OS(=O)(=O)c3ccc(CCCN)cc3)cc21` [Fluorescent dye 37], the Cell visibility result in series [1] (setting [5]) is “P”. Also, the Cell toxicity entry in series [2] (setting [6]) is given as “P (P (Pass): 0.8 or more)”.

Take `O=C(O)CCCN1C(=O)C2=C(c3ccccc3)NC(=O)C2=C1c1ccccc1` [Fluorescent dye 38]: in series [1] (setting [5]), the Cell visibility entry was “P”. The Cell toxicity entry in series [2] (setting [6]) was “P (P (Pass): 0.8 or more)”.

As for `CN(C)CCCNC(=O)c1ccc(C(=O)O)c(-c2c3ccc(=O)cc-3oc3cc(O)ccc23)c1` [Fluorescent dye 39], in series [1] (setting [5]), the Cell visibility result was “P”. For the same compound, in series [2] (setting [6]), the Cell toxicity result is “P (P (Pass): 0.8 or more)”.

On to `CCN(CC)c1ccc2c(-c3ccccc3C(=O)NCCCN(C)C)c3ccc(=[N+](CC)CC)cc-3oc2c1.[Cl-]` [Fluorescent dye 40], for which the Cell visibility result in series [1] (setting [5]) is given as “P”. For the same compound, in series [2] (setting [6]), the Cell toxicity result was “P (P (Pass): 0.8 or more)”.

In the case of `CC1=CC(C)=[N+]2C1Cc1ccc(CCC(=O)NCCCN(C)C)n1[B-]2(F)F` (stereo not shown) [Fluorescent dye 41], the Cell visibility result in series [1] (setting [5]) was “P”. For the same compound, in series [2] (setting [6]), the Cell toxicity entry is listed as “P (P (Pass): 0.8 or more)”.

On to `CCOc1cccc2c1C1=Nc3c4cccc(OCC)c4c4[n]3[Al-2]35([O][PH](=O)CCCO)[n]6c(c7cccc(OCC)c7c6=NC2=[N+]13)=NC1=[N+]5C(=N4)c2cccc(OCC)c21` (stereo not shown) [Fluorescent dye 54], for which, in series [1] (setting [5]), the Cell visibility entry is listed as “P”. Besides, the Cell toxicity result in series [2] (setting [6]) is listed as “P (P (Pass): 0.8 or more)”.

Turning to `CCOc1cccc2c1C1=Nc3c4cccc(OCC)c4c4[n]3[Al-2]35([O]S(=O)(=O)c6ccc(O)cc6)[n]6c(c7cccc(OCC)c7c6=NC2=[N+]13)=NC1=[N+]5C(=N4)c2cccc(OCC)c21` [Fluorescent dye 55], the Cell visibility entry in series [1] (setting [5]) was “P”. In addition, the Cell toxicity entry in series [2] (setting [6]) is listed as “P (P (Pass): 0.8 or more)”.

For the compound `O=C1NC(c2ccccc2)=C2C(=O)N(CCCP(=O)(O)O)C(c3ccccc3)=C12` [Fluorescent dye 60], the Cell visibility entry in series [1] (setting [5]) was “P”. Also, the Cell toxicity result in series [2] (setting [6]) is listed as “P (P (Pass): 0.8 or more)”.

For `CN1/C(=C/C=C/C=C/C2=[N+](CCCCCC(=O)NCCCO)c3ccccc3C2(C)C)C(C)(C)c2ccccc21` [Fluorescent dye 62], the Cell visibility result in series [1] (setting [5]) is listed as “P”. Further, the Cell toxicity result in series [2] (setting [6]) is “P (P (Pass): 0.8 or more)”.

Consider `CC1=CC(C)=[N+]2C1=Cc1ccc(CCC(=O)NCCCO)n1[B-]2(F)F` [Fluorescent dye 63], for which the Cell visibility entry in series [1] (setting [5]) is given as “P”. Moreover, the Cell toxicity entry in series [2] (setting [6]) is “P (P (Pass): 0.8 or more)”.
